In publication PMC11450061 (Clinical Pharmacokinetics, 2024):
Like-named read-outs stand apart in the source and are kept apart here.

Assays:
[1] = cited from earlier work
[2] = tested on: BCR::ABL1^IS levels in patients with CML-CP without the T315I mutation; experiment: Exposure-response efficacy; conditions: Cmin model
[3] = asciminib 40 mg b.i.d. vs bosutinib 500 mg q.d.; cited from earlier work
[4] = Exposure-response safety; type: in vivo, human; conditions: for predicted probability of AST increase grade ≥ 2 event within a cycle: ASCEMBL study
[5] = TEAEs leading to dose reduction/interruption, time-dependent Cox regression; type: in vivo, human; conditions: 152 of 351 patients; pooled dose-finding and ASCEMBL
[6] = Concentration-QTcF analysis; type: in vivo, human
[7] = tested on: BCR::ABL1^IS in patients with CML-CP treated with two or more prior TKIs; conditions: asciminib 40 mg b.i.d. vs bosutinib 500 mg q.d.; cited from earlier work
[8] = Population pharmacokinetics; set-up: species or system human
[9] = cited from earlier work; remark: listed apart in the source

SMILES | increase in Cmax of asciminib when taken in combination with imatinib [1] [fold] | decrease in drug effect with a Cmin lower by 30% [2] [%] | Effmag (population mean, RSE) ([2]; patients without T315I) | AEs leading to treatment discontinuation [3] [%] | grade ≥ 3 adverse events [3] [%] | predicted probability of AST increase grade ≥ 2 event within a cycle ([4]; 5-fold increase in geometric mean Cmax of 40 mg b.i.d.) [%] | predicted probability of AST increase grade ≥ 2 event within a cycle ([4]; geometric mean Cmax of 40 mg b.i.d.) [%] | relationship between asciminib exposure and the majority of the laboratory events analyzed ([4]; repeated measures logistic regression) | patients with TEAEs leading to dose reduction or dose interruption [5] [%] | estimated mean QTcF change from baseline ([6]; at Cmax of 40 mg b.i.d.) | estimated mean QTcF change from baseline ([6]; at Cmax of 80 mg q.d.) | estimated mean QTcF change from baseline ([6]; at Cmax of 200 mg b.i.d.) | estimated mean QTcF change from baseline ([6]; at the HCRE (highest clinically relevant exposure)) | proportion of patients achieving MMR (BCR::ABL1^IS ≤ 0.1%) at 96 weeks [7] [%] | Cmin lower for 80 mg q.d. compared with 40 mg b.i.d. [8] | increase in Cmax with 80 mg q.d. compared with 40 mg b.i.d. ([8]; based on PopPK) [%] | decrease in exposure compared with the fasted state ([9]; high-fat meal) | decrease in exposure compared with the fasted state ([9]; low-fat meal)
O=C(Nc1ccc(OC(F)(F)Cl)cc1)c1cnc(N2CC[C@@H](O)C2)c(-c2ccn[nH]2)c1 [asciminib] | 1.59 | < 2 | 42.1 (3.4%) | 7.7 | 56.4 | 0.4 | 0.1 | no statistically significant relationship | 43.3 | 3.35 (90% CI 2.28–4.43) ms | 3.64 (90% CI 2.60–4.68) ms | 5.37 (90% CI 3.97–6.77) ms | 6.77 (90% CI 4.67–8.87) ms | 37.6 | about 30% | 60 | approximately 65% | approximately 30%
COc1cc(Nc2c(C#N)cnc3cc(OCCCN4CCN(C)CC4)c(OC)cc23)c(Cl)cc1Cl [bosutinib] |  |  |  | 26.3 | 68.4 |  |  |  |  |  |  |  |  | 15.8 |  |  |  | 
